Assay [1] has as its target human Arginine Vasopressin Receptor V2 (AVPR2) (Homo sapiens (Human), UniProt P30518). Description: Vasopressin V2 receptor antagonist assay (cAMP TR-FRET, 1321N1 cells). The assay is classed as cell-based.
In assay [2] the target is human Oxytocin Receptor (hOTR) (Homo sapiens (Human), UniProt P30559). Description: Oxytocin receptor antagonist assay (oxytocin-evoked calcium, FLIPR, CHEM-1-hOTR cells). The assay is classed as cell-based. The settings on record: read-out: OT IC50. Put shortly:
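Oxytocin-evoked intracellular calcium rise measured by FLIPR^TETRA fluorescence (Calcium-6 dye, 3 min read) in CHEM-1-hOTR cells. Test compounds, 10-point 1:3 dilutions, were added 15 min at 37 °C before an EC80 oxytocin challenge (EC80 set each assay day); buffer HBSS with 20 mM HEPES.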

The structures appear in SMILES notation.

human Arginine Vasopressin Receptor V2 (AVPR2), sequence (P30518 whole entry): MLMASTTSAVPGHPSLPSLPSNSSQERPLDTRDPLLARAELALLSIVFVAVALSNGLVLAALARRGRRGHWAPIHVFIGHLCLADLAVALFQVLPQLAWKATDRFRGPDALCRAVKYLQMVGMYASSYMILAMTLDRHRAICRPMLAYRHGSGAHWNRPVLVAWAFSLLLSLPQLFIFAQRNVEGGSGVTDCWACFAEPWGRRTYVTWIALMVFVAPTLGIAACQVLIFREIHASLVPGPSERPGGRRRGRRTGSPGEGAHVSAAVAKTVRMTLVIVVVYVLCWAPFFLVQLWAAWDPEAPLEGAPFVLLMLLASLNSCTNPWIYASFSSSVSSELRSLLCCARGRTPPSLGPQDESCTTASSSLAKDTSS
human Oxytocin Receptor (hOTR), sequence (P30559 whole entry): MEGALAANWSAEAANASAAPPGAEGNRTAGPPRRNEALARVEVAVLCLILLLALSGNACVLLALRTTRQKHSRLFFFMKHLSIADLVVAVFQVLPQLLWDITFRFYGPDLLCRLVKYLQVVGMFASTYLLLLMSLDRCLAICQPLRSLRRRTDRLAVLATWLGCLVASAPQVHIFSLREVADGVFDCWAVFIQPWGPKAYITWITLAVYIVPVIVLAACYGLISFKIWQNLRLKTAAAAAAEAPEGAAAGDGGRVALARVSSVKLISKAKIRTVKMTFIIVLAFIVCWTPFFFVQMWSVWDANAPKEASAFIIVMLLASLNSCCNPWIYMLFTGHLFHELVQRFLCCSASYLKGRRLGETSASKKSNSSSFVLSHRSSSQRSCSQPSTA

Regarding `COC(=O)N1Cc2cc(Cl)ccc2-n2c(C3CC4(C3)CN(c3ncc(F)cn3)C4)nnc2C1C` (single isomer, unassigned) [Cpd 170A], the IC50 was 500 to 1000 nM in assay [1] and greater than 1000 nM in assay [2].

Turning to `CC(C)OC(=O)N1Cc2cc(Cl)ccc2-n2c(C3CC4(C3)CN(c3ccc(F)cn3)C4)nnc2C1C` (single isomer, unassigned) [Cpd 163A], the IC50 in assay [1] is greater than 1000 nM; in assay [2], 100 to 500 nM.

As for `CC1c2nnc(C3CC4(C3)CN(c3ncccn3)C4)n2-c2ccc(Cl)cc2CN1C(=O)OC1CC1` (stereo not drawn) [compound 171], the IC50 in assay [1] and in assay [2] was greater than 1000 nM in each case.

Turning to `CCN1Cc2cc(Cl)ccc2-n2c(nnc2C2CC3(C2)CN(c2ccccn2)C3)C1` [compound 45], the values for the IC50 in assay [1] and in assay [2] were 100 to 500 nM and greater than 1000 nM, respectively.

As for `CC(C)N1Cc2cc(Cl)ccc2-n2c(nnc2C2CC3(C2)CN(c2cnccn2)C3)C1` [compound 47], the half-inhibitory concentration (IC50) in assay [1] and in assay [2] was greater than 1000 nM each time.

For the molecule `COC(=O)N1Cc2cc(Cl)ccc2-n2c(C3CC4(C3)CN(c3ccc(F)cn3)C4)nnc2C1C` (single isomer, unassigned) [142A], the IC50 in assay [1] and in assay [2] was greater than 1000 nM in each case.

For the molecule `CN1Cc2cc(Cl)ccc2-n2c(nnc2C2CC3(C2)CN(c2ccc(F)cn2)C3)C1` [compound 1, 8-chloro-1-(2-(5-fluoropyridin-2-yl)-2-azaspiro[3.3]heptan-6-yl)-5-methyl-5,6-dihydro-4H-benzo[f][1,2,4]triazolo[4,3-a][1,4]diazepine], the 50% inhibitory concentration (IC50) in assay [1] and in assay [2] was greater than 1000 nM in each case.

For the molecule `O=C(N1Cc2cc(Cl)ccc2-n2c(nnc2C2CC3(C2)CN(c2cnccn2)C3)C1)C1(F)CC1` [compound 81], the half-maximal inhibitory concentration (IC50) in assay [1] and in assay [2] was greater than 1000 nM in each case.

As to `CC1c2nnc(C3CC4(C3)CN(c3ncccn3)C4)n2-c2ccc(Cl)cc2CN1C(=O)OC(CF)CF` (single isomer, unassigned) [Cpd 202A], the IC50 in assay [1] and in assay [2] was greater than 1000 nM in each case.

`CC(C)N1Cc2cc(Cl)ccc2-n2c(nnc2C2CC3(C2)CN(c2ccccn2)C3)C1` [compound 48]: the 50% inhibitory concentration (IC50) was 500 to 1000 nM in assay [1] and greater than 1000 nM in assay [2].

Regarding `CCC(=O)N1Cc2cc(Cl)ccc2-n2c(nnc2C2CC3(C2)CN(c2ccccn2)C3)C1` [compound 67], the IC50 in assay [1] and in assay [2] was greater than 1000 nM throughout.

As for `O=C(OC(CF)CF)N1Cc2cc(Cl)ccc2-n2c(nnc2C2CC3(C2)CN(c2ccc(F)cn2)C3)C1` [compound 79], the IC50 fell in the range of 500 to 1000 nM in assay [1] and 100 to 500 nM in assay [2].

Turning to `CN1Cc2cc(Cl)ccc2-n2c(nnc2C2CC3(C2)CN(c2ccccn2)C3)C1` [compound 2], the concentration for half-maximal inhibition (IC50) in assay [1] and in assay [2] was greater than 1000 nM each time.

As for `COC(=O)N1Cc2cc(Cl)ccc2-n2c(C3CC4(C3)CN(c3cccc(C)n3)C4)nnc2C1C` (stereo not drawn) [compound 180], the IC50 in assay [1] and in assay [2] was 100 to 500 nM throughout.

For `CC(C)N1Cc2cc(Cl)ccc2-n2c(nnc2C2CC3(C2)CN(c2ncccc2F)C3)C1` [compound 54], the results for the concentration for half-maximal inhibition (IC50) in assay [1] and in assay [2] were 500 to 1000 nM and greater than 1000 nM, respectively.

Take `CCN1Cc2cc(Cl)ccc2-n2c(nnc2C2CC3(C2)CN(c2ccc(F)cn2)C3)C1` [compound 49]: the IC50 was 100 to 500 nM in assay [1] and greater than 1000 nM in assay [2].

In the case of `COC(=O)N1Cc2cc(Cl)ccc2-n2c(C3CC4(C3)CN(c3ncc(F)cn3)C4)nnc2C1C` (stereo not drawn) [compound 170], the concentration for half-maximal inhibition (IC50) in assay [1] and in assay [2] was greater than 1000 nM throughout.

With `CC(=O)N1Cc2cc(Cl)ccc2-n2c(nnc2C2CC3(C2)CN(c2ccc(F)cn2)C3)C1` [compound 64], the IC50 in assay [1] was 100 to 500 nM; in assay [2], greater than 1000 nM.

For `COC(=O)N1Cc2cc(Cl)ccc2-n2c(C3CC4(C3)CN(c3ccc(F)cn3)C4)nnc2C1C` (single isomer, unassigned) [Cpd 142B], the 50% inhibitory concentration (IC50) in assay [1] was greater than 1000 nM; in assay [2], 500 to 1000 nM.

With `COC(=O)N1Cc2cc(Cl)ccc2-n2c(nnc2C2CC3(C2)CN(c2ccc(F)cn2)C3)C1` [compound 61], the concentration for half-maximal inhibition (IC50) is 100 to 500 nM in assay [1] and 500 to 1000 nM in assay [2].

Regarding `O=C(N1Cc2cc(Cl)ccc2-c2c(C3CC4(C3)CN(c3cccnn3)C4)noc2C1)C(F)(F)F` [compound 105], the IC50 was greater than 1000 nM in assay [1] and 100 to 500 nM in assay [2].

In the case of `CC1c2nnc(C3CC4(C3)CN(c3ncc(F)cn3)C4)n2-c2ccc(Cl)cc2CN1C(=O)OC1CC1` (single isomer, unassigned) [Cpd 192A], the IC50 in assay [1] and in assay [2] was greater than 1000 nM each time.

Consider `CC1c2nnc(C3CC4(C3)CN(c3ccc(F)cn3)C4)n2-c2ccc(Cl)cc2CN1C(=O)OC1CC1` (single isomer, unassigned) [Cpd 191A], for which the half-maximal inhibitory concentration (IC50) in assay [1] was greater than 1000 nM; in assay [2] it was 100 to 500 nM.

Regarding `CCOC(=O)N1Cc2cc(Cl)ccc2-n2c(C3CC4(C3)CN(c3ncccn3)C4)nnc2C1C` (single isomer, unassigned) [Cpd 168A], the half-inhibitory concentration (IC50) in assay [1] is greater than 1000 nM; in assay [2] it was 500 to 1000 nM.

With `COC(=O)N1Cc2cc(Cl)ccc2-n2c(C3CC4(C3)CN(c3cnccn3)C4)nnc2C1C` (single isomer, unassigned) [Cpd 165A], the figures for the half-maximal inhibitory concentration (IC50) in assay [1] and in assay [2] were greater than 1000 nM and 500 to 1000 nM, respectively.

Regarding `Clc1ccc2c(c1)CN(C1COC1)Cc1nnc(C3CC4(C3)CN(c3ccccn3)C4)n1-2` [compound 57, 8-chloro-5-(oxetan-3-yl)-1-(2-(pyridin-2-yl)-2-azaspiro[3.3]heptan-6-yl)-5,6-dihydro-4H-benzo[f][1,2,4]triazolo[4,3-a][1,4]diazepine], the IC50 in assay [1] and in assay [2] was greater than 1000 nM each time.

In the case of `Fc1ccc(N2CC3(CC(c4nnc5n4-c4ccc(Cl)cc4CN(C4CCC4)C5)C3)C2)nc1` [compound 42], the IC50 in assay [1] was less than 100 nM; in assay [2], 500 to 1000 nM.

For `Clc1ccc2c(c1)CN(C1CCC1)Cc1nnc(C3CC4(C3)CN(c3ccccn3)C4)n1-2` [compound 41], the IC50 in assay [1] was less than 100 nM; in assay [2], 500 to 1000 nM.

With `O=C(C1CC1)N1CC2(CC(c3nnc4n3-c3ccc(Cl)cc3CN(C(=O)C3(F)CC3)C4)C2)C1` [compound 136], the IC50 in assay [1] and in assay [2] was greater than 1000 nM throughout.

Consider `CCOC(=O)N1Cc2cc(Cl)ccc2-n2c(C3CC4(C3)CN(c3ncccn3)C4)nnc2C1C` (stereo not drawn) [compound 168], for which the half-inhibitory concentration (IC50) in assay [1] and in assay [2] was greater than 1000 nM in each case.

As to `FCCN1Cc2cc(Cl)ccc2-n2c(nnc2C2CC3(C2)CN(c2ccccn2)C3)C1` [compound 59], the figures for the IC50 in assay [1] and in assay [2] were 500 to 1000 nM and greater than 1000 nM, respectively.

On to `CC1c2nnc(C3CC4(C3)CN(c3ccc(F)cn3)C4)n2-c2ccc(Cl)cc2CN1C(=O)C1(F)CC1` (single isomer, unassigned) [Cpd 174A], for which the IC50 in assay [1] was greater than 1000 nM; in assay [2] it was 100 to 500 nM.

On to `COC(=O)N1Cc2cc(Cl)ccc2-n2c(C3CC4(C3)CN(c3cnccn3)C4)nnc2C1C` (stereo not drawn) [compound 165], for which the values for the IC50 in assay [1] and in assay [2] were greater than 1000 nM and 500 to 1000 nM, respectively.

Consider `COC(=O)N1Cc2cc(Cl)ccc2-n2c(C3CC4(C3)CN(c3ncccc3F)C4)nnc2C1C` (stereo not drawn) [compound 182], for which the IC50 in assay [1] and in assay [2] was 500 to 1000 nM each time.

On to `COC(=O)N1Cc2cc(Cl)ccc2-n2c(C3CC4(C3)CN(c3ncccn3)C4)nnc2C1C` (stereo not drawn) [compound 166], for which the half-maximal inhibitory concentration (IC50) in assay [1] and in assay [2] was greater than 1000 nM throughout.

For `CC(C)OC(=O)N1Cc2cc(Cl)ccc2-n2c(C3CC4(C3)CN(c3ncccn3)C4)nnc2C1C` (stereo not drawn) [compound 167], the half-inhibitory concentration (IC50) in assay [1] and in assay [2] was greater than 1000 nM each time.

The values are drawn from US11186577B2, “Vasopressin receptor antagonists and products and methods related thereto” (BlackThorn Therapeutics, Inc., priority 2017, dated 2021).
